Experiments:
[1] = xn = mol fraction of the nth substance listed; settings: 101 kPa, Liquid, Vibrating tube method
[2] = 101.33 kPa, Liquid, Vibrating tube method
[3] = refractive index (Na D-line) (dimensionless); settings: 101.33 kPa, Liquid, Standard Abbe refractometry
[4] = excess molar enthalpy (molar enthalpy of mixing); xn = mol fraction of the nth substance listed; settings: 101 kPa, Liquid, Calvet calorimetry

CCCCC [pentane] + CCOC=O
[1], x2 = 0
Settings | mass density [kg/m3]
291.15 K | 627.86
298.15 K | 620.89

CCCCC [pentane] + COC=O
Settings | mass density [kg/m3]
[1], 291.15 K, x2 = 0 | 627.86

CCCOC=O [propyl methanoate]
Settings | mass density, [2] [kg/m3] | refractive index, [3]
291.15 K | 907.97 | 1.3778
298.15 K | 899.86 | 1.3752

CCCCOC=O [butyl methanoate] + CCCCC
Settings | excess molar enthalpy [kcal/mol] | mass density [kg/m3]
[1], 291.15 K, x1 = 0.0482 | – | 640.01
[1], 291.15 K, x1 = 0.1029 | – | 654.1
[1], 291.15 K, x1 = 0.1541 | – | 667.59
[1], 291.15 K, x1 = 0.2028 | – | 680.41
[1], 291.15 K, x1 = 0.2999 | – | 706.35
[1], 291.15 K, x1 = 0.3486 | – | 719.53
[1], 291.15 K, x1 = 0.453 | – | 747.88
[1], 291.15 K, x1 = 0.5029 | – | 761.43
[1], 291.15 K, x1 = 0.5974 | – | 786.96
[1], 291.15 K, x1 = 0.7 | – | 814.79
[1], 291.15 K, x1 = 0.8074 | – | 843.81
[1], 291.15 K, x1 = 0.8966 | – | 868.4
[1], 291.15 K, x1 = 0.9452 | – | 881.04
[1], 291.15 K, x1 = 1 | – | 895.86
[1], 298.15 K, x1 = 0.0584 | – | 635.57
[1], 298.15 K, x1 = 0.1147 | – | 650.09
[1], 298.15 K, x1 = 0.1936 | – | 670.91
[1], 298.15 K, x1 = 0.301 | – | 699.46
[1], 298.15 K, x1 = 0.343 | – | 710.8
[1], 298.15 K, x1 = 0.3886 | – | 723.15
[1], 298.15 K, x1 = 0.4521 | – | 740.45
[1], 298.15 K, x1 = 0.4958 | – | 752.3
[1], 298.15 K, x1 = 0.5442 | – | 765.49
[1], 298.15 K, x1 = 0.6477 | – | 793.55
[1], 298.15 K, x1 = 0.7529 | – | 822.18
[1], 298.15 K, x1 = 0.8993 | – | 861.53
[1], 298.15 K, x1 = 1 | – | 888.47
[4], 291.15 K, x1 = 0.0661 | 0.0774 | –
[4], 291.15 K, x1 = 0.1254 | 0.1231 | –
[4], 291.15 K, x1 = 0.1836 | 0.1594 | –
[4], 291.15 K, x1 = 0.2321 | 0.1862 | –
[4], 291.15 K, x1 = 0.2846 | 0.2041 | –
[4], 291.15 K, x1 = 0.3351 | 0.2141 | –
[4], 291.15 K, x1 = 0.3832 | 0.2196 | –
[4], 291.15 K, x1 = 0.4276 | 0.2208 | –
[4], 291.15 K, x1 = 0.4704 | 0.2187 | –
[4], 291.15 K, x1 = 0.5095 | 0.2156 | –
[4], 291.15 K, x1 = 0.5587 | 0.2084 | –
[4], 291.15 K, x1 = 0.6121 | 0.1965 | –
[4], 291.15 K, x1 = 0.6666 | 0.1781 | –
[4], 291.15 K, x1 = 0.7272 | 0.1522 | –
[4], 291.15 K, x1 = 0.799 | 0.118 | –
[4], 291.15 K, x1 = 0.8702 | 0.076 | –
[4], 291.15 K, x1 = 0.9372 | 0.0394 | –
[4], 298.15 K, x1 = 0.0471 | 0.0748 | –
[4], 298.15 K, x1 = 0.0941 | 0.13 | –
[4], 298.15 K, x1 = 0.1606 | 0.1769 | –
[4], 298.15 K, x1 = 0.2273 | 0.2079 | –
[4], 298.15 K, x1 = 0.2903 | 0.228 | –
[4], 298.15 K, x1 = 0.3523 | 0.238 | –
[4], 298.15 K, x1 = 0.4102 | 0.24 | –
[4], 298.15 K, x1 = 0.4611 | 0.2361 | –
[4], 298.15 K, x1 = 0.5095 | 0.2292 | –
[4], 298.15 K, x1 = 0.5166 | 0.2254 | –
[4], 298.15 K, x1 = 0.5673 | 0.2163 | –
[4], 298.15 K, x1 = 0.6237 | 0.202 | –
[4], 298.15 K, x1 = 0.6862 | 0.1773 | –
[4], 298.15 K, x1 = 0.754 | 0.1511 | –
[4], 298.15 K, x1 = 0.8174 | 0.1202 | –
[4], 298.15 K, x1 = 0.8803 | 0.0815 | –
[4], 298.15 K, x1 = 0.9477 | 0.0402 | –

CCCCC [pentane] + CCCOC=O
[1], x2 = 0
Settings | mass density [kg/m3]
291.15 K | 627.86
298.15 K | 620.89

CCCCC [pentane]
Settings | mass density, [2] [kg/m3] | refractive index, [3]
291.15 K | 627.86 | 1.3589
298.15 K | 620.89 | 1.3545

COC=O [methyl methanoate]
Settings | mass density, [2] [kg/m3] | refractive index, [3]
291.15 K | 977.21 | 1.3452
298.15 K | 966.54 | 1.3415

CCOC=O [ethyl methanoate] + CCCCC
Settings | excess molar enthalpy [kcal/mol] | mass density [kg/m3]
[1], 291.15 K, x1 = 0.054 | – | 637.14
[1], 291.15 K, x1 = 0.063 | – | 638.38
[1], 291.15 K, x1 = 0.118 | – | 649.24
[1], 291.15 K, x1 = 0.161 | – | 658.03
[1], 291.15 K, x1 = 0.208 | – | 668.06
[1], 291.15 K, x1 = 0.305 | – | 689.98
[1], 291.15 K, x1 = 0.35 | – | 701.21
[1], 291.15 K, x1 = 0.405 | – | 715.14
[1], 291.15 K, x1 = 0.499 | – | 741.07
[1], 291.15 K, x1 = 0.595 | – | 769.91
[1], 291.15 K, x1 = 0.656 | – | 789.59
[1], 291.15 K, x1 = 0.751 | – | 822.65
[1], 291.15 K, x1 = 0.794 | – | 838.31
[1], 291.15 K, x1 = 0.85 | – | 859.54
[1], 291.15 K, x1 = 0.895 | – | 877.8
[1], 291.15 K, x1 = 0.941 | – | 896.94
[1], 291.15 K, x1 = 1 | – | 923.4
[1], 298.15 K, x1 = 0.058 | – | 631.15
[1], 298.15 K, x1 = 0.101 | – | 639.36
[1], 298.15 K, x1 = 0.104 | – | 639.54
[1], 298.15 K, x1 = 0.196 | – | 658.7
[1], 298.15 K, x1 = 0.252 | – | 670.7
[1], 298.15 K, x1 = 0.304 | – | 682.9
[1], 298.15 K, x1 = 0.405 | – | 708.3
[1], 298.15 K, x1 = 0.496 | – | 733.3
[1], 298.15 K, x1 = 0.609 | – | 766.9
[1], 298.15 K, x1 = 0.702 | – | 797.1
[1], 298.15 K, x1 = 0.801 | – | 832.2
[1], 298.15 K, x1 = 0.858 | – | 854.37
[1], 298.15 K, x1 = 0.909 | – | 875.28
[1], 298.15 K, x1 = 0.953 | – | 893.59
[1], 298.15 K, x1 = 1 | – | 914.35
[4], 291.15 K, x1 = 0.0907 | 0.109 | –
[4], 291.15 K, x1 = 0.1625 | 0.1671 | –
[4], 291.15 K, x1 = 0.2451 | 0.223 | –
[4], 291.15 K, x1 = 0.3245 | 0.2663 | –
[4], 291.15 K, x1 = 0.3983 | 0.2937 | –
[4], 291.15 K, x1 = 0.4484 | 0.3043 | –
[4], 291.15 K, x1 = 0.4961 | 0.3093 | –
[4], 291.15 K, x1 = 0.536 | 0.3057 | –
[4], 291.15 K, x1 = 0.5703 | 0.3 | –
[4], 291.15 K, x1 = 0.605 | 0.2945 | –
[4], 291.15 K, x1 = 0.6447 | 0.2818 | –
[4], 291.15 K, x1 = 0.6893 | 0.2653 | –
[4], 291.15 K, x1 = 0.7332 | 0.2445 | –
[4], 291.15 K, x1 = 0.7743 | 0.2182 | –
[4], 291.15 K, x1 = 0.8244 | 0.1855 | –
[4], 291.15 K, x1 = 0.874 | 0.1465 | –
[4], 291.15 K, x1 = 0.9259 | 0.0968 | –
[4], 291.15 K, x1 = 0.9621 | 0.0454 | –
[4], 298.15 K, x1 = 0.0714 | 0.106 | –
[4], 298.15 K, x1 = 0.1517 | 0.1922 | –
[4], 298.15 K, x1 = 0.2221 | 0.2512 | –
[4], 298.15 K, x1 = 0.3085 | 0.299 | –
[4], 298.15 K, x1 = 0.3849 | 0.3186 | –
[4], 298.15 K, x1 = 0.445 | 0.3217 | –
[4], 298.15 K, x1 = 0.4999 | 0.3236 | –
[4], 298.15 K, x1 = 0.5411 | 0.32 | –
[4], 298.15 K, x1 = 0.5726 | 0.3143 | –
[4], 298.15 K, x1 = 0.6159 | 0.3069 | –
[4], 298.15 K, x1 = 0.6668 | 0.2935 | –
[4], 298.15 K, x1 = 0.7209 | 0.2717 | –
[4], 298.15 K, x1 = 0.7702 | 0.2428 | –
[4], 298.15 K, x1 = 0.8273 | 0.2065 | –
[4], 298.15 K, x1 = 0.8813 | 0.16 | –
[4], 298.15 K, x1 = 0.9227 | 0.104 | –
[4], 298.15 K, x1 = 0.9662 | 0.049 | –

From the NIST ThermoML archive (doi:10.1016/j.fluid.2013.11.026)
